This note sets out measurements from US10822337B2, “TGF-β inhibitorC” (Rigel Pharmaceuticals, Inc., priority 2015, dated 2020).

Usually IC50 stands for the concentration that gives 50% inhibition.

The subject of assay [1] is TGF-β signaling (TGF-β pSMAD, MPC-11). In words: AlphaScreen SureFire SMAD3 (p-Ser423/425) assay, inhibition of TGF-β signaling. The class given is cell-based. As to conditions: Mus musculus, p-SMAD-3 (Ser423/425) in cell lysate after TGF-β stimulation. An outline of the steps: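 Phosphorylation of endogenous SMAD-3 at Ser423/425 was quantified with an AlphaScreen SureFire assay. Cells were exposed to compound for about 10 minutes, stimulated with TGF-β, and lysed in 1× Lysis Buffer. Lysate (5 μL) was combined with Reaction/Activation buffer plus Acceptor beads for 2 hours, then Donor beads for 1½ hours, and read on a plate reader.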
Background: Alpha assays give light when donor and acceptor beads are brought close together.

The test system of assay [2] is GDF8 signaling (GDF pSMAD, MPC11). In words: AlphaScreen SureFire SMAD3 (p-Ser423/425) assay, inhibition of GDF8 signaling. In kind it is cell-based. The following applies: Mus musculus, MPC-11, p-SMAD-3 (Ser423/425) in cell lysate after GDF8 stimulation.

`Fc1ccc(F)c(-c2nn3c(c2-c2ccc4cn[nH]c4c2)CCC3)c1` [Compound 193, 6-(2-(2,5-Difluorophenyl)-5,6-dihydro-4H-pyrrolo[1,2-b]pyrazol-3-yl)-1H-indazole]: the results for the IC50 in assay [1] and in assay [2] were 2.59 µM and 0.371 µM, respectively.

Regarding `Fc1ccc(F)c(-c2nn3c(c2-c2ccc4nccn4c2)CCC3)c1` [Compound 194, 6-(2-(2,5-Difluorophenyl)-5,6-dihydro-4H-pyrrolo[1,2-b]pyrazol-3-yl)imidazo[1,2-a]pyridine], the IC50 in assay [1] worked out at 0.909 µM; in assay [2], 0.177 µM.

Consider `Fc1ccc(F)c(-c2nn3c(c2-c2ccc4ncsc4c2)CCC3)c1` [Compound 195, 6-(2-(2,5-Difluorophenyl)-5,6-dihydro-4H-pyrrolo[1,2-b]pyrazol-3-yl)benzo[d]thiazole], for which the concentration for half-maximal inhibition (IC50) came out at 0.376 µM in assay [1] and 0.0787 µM in assay [2].

Turning to `Fc1ccc(F)c(-c2nn3c(c2-c2ccc4ncccc4c2)CCC3)c1` [Compound 196, 6-(2-(2,5-Difluorophenyl)-5,6-dihydro-4H-pyrrolo[1,2-b]pyrazol-3-yl)quinoline], the half-maximal inhibitory concentration (IC50) in assay [1] is 5.26 µM; in assay [2] it was 0.862 µM.

As for `Fc1ccc(F)c(-c2nn3c(c2-c2ccc4nccnc4c2)CCC3)c1` [Compound 197, 6-(2-(2,5-Difluorophenyl)-5,6-dihydro-4H-pyrrolo[1,2-b]pyrazol-3-yl)quinoxaline], the half-maximal inhibitory concentration (IC50) in assay [1] came out at 0.608 µM; in assay [2], 0.059 µM.

As for `Fc1ccc(F)c(-c2nn3c(c2-c2ccc4ncnn4c2)CCC3)c1` [Compound 198, 6-(2-(2,5-Difluorophenyl)-5,6-dihydro-4H-pyrrolo[1,2-b]pyrazol-3-yl)-[1,2,4]triazolo[1,5-a]pyridine], the IC50 in assay [1] is 0.334 µM; in assay [2] it was 0.0264 µM.

Regarding `COc1cnc2ccc(-c3c(-c4cc(F)ccc4F)nn4c3CCC4)cc2n1` [Compound 199, 7-(2-(2,5-difluorophenyl)-5,6-dihydro-4H-pyrrolo[1,2-b]pyrazol-3-yl)-2-methoxyquinoxaline], the IC50 in assay [1] is 1.37 µM; in assay [2], 0.427 µM.

For the molecule `COCCOc1cnc2ccc(-c3c(-c4cc(F)ccc4F)nn4c3CCC4)cc2n1` [Compound 200, 7-(2-(2,5-difluorophenyl)-5,6-dihydro-4H-pyrrolo[1,2-b]pyrazol-3-yl)-2-(2-methoxyethoxy)quinoxaline], the half-maximal inhibitory concentration (IC50) stood at 0.952 µM in assay [1] and 0.274 µM in assay [2].

Turning to `Fc1ccccc1-c1nn2c(c1-c1ccc3ncsc3c1)CCC2` [Compound 201, 6-(2-(2-fluorophenyl)-5,6-dihydro-4H-pyrrolo[1,2-b]pyrazol-3-yl)benzo[d]thiazole], the 50% inhibitory concentration (IC50) in assay [1] was determined as 1.46 µM; in assay [2], 0.225 µM.
